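48-hour exposure; five concentrations; linearly interpolated endpoints. TGI is the concentration that stops growth completely.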
Assays:
Assay in all cases: NCI anticancer screen, dose series, 48 h
786-0 renal = tested on: 786-0 renal
A498 renal = tested on: A498 renal
A549 NSCLC = tested on: A549 NSCLC
ACHN renal = tested on: ACHN renal
CAKI-1 renal = tested on: CAKI-1 renal
CCRF-CEM leukemia = tested on: CCRF-CEM leukemia
COLO 205 colon = tested on: COLO 205 colon
DLD-1 colon = tested on: DLD-1 colon
DMS 114 small cell lung = tested on: DMS 114 small cell lung
DMS 273 small cell lung = tested on: DMS 273 small cell lung
EKVX NSCLC = tested on: EKVX NSCLC
HCC-2998 colon = tested on: HCC-2998 colon
HCT-116 colon = tested on: HCT-116 colon
HCT-15 colon = tested on: HCT-15 colon
HL-60(TB) leukemia = tested on: HL-60(TB) leukemia
HOP-18 NSCLC = tested on: HOP-18 NSCLC
HOP-62 NSCLC = tested on: HOP-62 NSCLC
HOP-92 NSCLC = tested on: HOP-92 NSCLC
HT29 colon = tested on: HT29 colon
IGROV1 ovarian = tested on: IGROV1 ovarian
K-562 leukemia = tested on: K-562 leukemia
KM12 colon = tested on: KM12 colon
KM20L2 colon = tested on: KM20L2 colon
LOX IMVI melanoma = tested on: LOX IMVI melanoma
LXFL 529 NSCLC = tested on: LXFL 529 NSCLC
M14 melanoma = tested on: M14 melanoma
M19-MEL melanoma = tested on: M19-MEL melanoma
MALME-3M melanoma = tested on: MALME-3M melanoma
MOLT-4 leukemia = tested on: MOLT-4 leukemia
NCI-H226 lung = tested on: NCI-H226 lung
NCI-H23 lung = tested on: NCI-H23 lung
NCI-H460 lung = tested on: NCI-H460 lung
NCI-H522 lung = tested on: NCI-H522 lung
OVCAR-3 ovarian = tested on: OVCAR-3 ovarian
OVCAR-4 ovarian = tested on: OVCAR-4 ovarian
OVCAR-5 ovarian = tested on: OVCAR-5 ovarian
OVCAR-8 ovarian = tested on: OVCAR-8 ovarian
RXF 393 renal = tested on: RXF 393 renal
SF-268 CNS = tested on: SF-268 CNS
SF-295 CNS = tested on: SF-295 CNS
SF-539 CNS = tested on: SF-539 CNS
SK-MEL-2 melanoma = tested on: SK-MEL-2 melanoma
SK-MEL-28 melanoma = tested on: SK-MEL-28 melanoma
SK-MEL-5 melanoma = tested on: SK-MEL-5 melanoma
SK-OV-3 ovarian = tested on: SK-OV-3 ovarian
SN12C renal = tested on: SN12C renal
SNB-19 CNS = tested on: SNB-19 CNS
SNB-75 CNS = tested on: SNB-75 CNS
SNB-78 CNS = tested on: SNB-78 CNS
SW-620 colon = tested on: SW-620 colon
TK-10 renal = tested on: TK-10 renal
U251 CNS = tested on: U251 CNS
UACC-257 melanoma = tested on: UACC-257 melanoma
UACC-62 melanoma = tested on: UACC-62 melanoma
UO-31 renal = tested on: UO-31 renal
XF 498 CNS = tested on: XF 498 CNS
RPMI-8226 leukemia = tested on: RPMI-8226 leukemia
SR leukemia = tested on: SR leukemia

Measured: TGI

CC1(O)C(C)(O)C(C)(O)C1(C)O (stereo not drawn)
> 100 µM: 786-0 renal | A498 renal | A549 NSCLC | ACHN renal | CAKI-1 renal | CCRF-CEM leukemia | COLO 205 colon | DLD-1 colon | DMS 114 small cell lung | DMS 273 small cell lung | EKVX NSCLC | HCC-2998 colon | HCT-116 colon | HCT-15 colon | HL-60(TB) leukemia | HOP-18 NSCLC | HOP-62 NSCLC | HOP-92 NSCLC | HT29 colon | IGROV1 ovarian | K-562 leukemia | KM12 colon | KM20L2 colon | LOX IMVI melanoma | LXFL 529 NSCLC | M14 melanoma | M19-MEL melanoma | MALME-3M melanoma | MOLT-4 leukemia | NCI-H226 lung | NCI-H23 lung | NCI-H460 lung | NCI-H522 lung | OVCAR-3 ovarian | OVCAR-4 ovarian | OVCAR-5 ovarian | OVCAR-8 ovarian | RXF 393 renal | SF-268 CNS | SF-295 CNS | SF-539 CNS | SK-MEL-2 melanoma | SK-MEL-28 melanoma | SK-MEL-5 melanoma | SK-OV-3 ovarian | SN12C renal | SNB-19 CNS | SNB-75 CNS | SNB-78 CNS | SW-620 colon | TK-10 renal | U251 CNS | UACC-257 melanoma | UACC-62 melanoma | UO-31 renal | XF 498 CNS

COC(=O)C(/C(=N/NC(N)=O)C(=O)Nc1c(C)cccc1C(C)(C)C)c1nc2ccc(Cl)cc2[nH]c1=O (stereo not drawn)
> 100 µM: 786-0 renal | A498 renal | A549 NSCLC | ACHN renal | CAKI-1 renal | CCRF-CEM leukemia | DLD-1 colon | DMS 114 small cell lung | DMS 273 small cell lung | EKVX NSCLC | HCC-2998 colon | HCT-116 colon | HCT-15 colon | HL-60(TB) leukemia | HOP-18 NSCLC | HOP-62 NSCLC | HOP-92 NSCLC | HT29 colon | IGROV1 ovarian | K-562 leukemia | KM12 colon | KM20L2 colon | LOX IMVI melanoma | LXFL 529 NSCLC | M14 melanoma | M19-MEL melanoma | MALME-3M melanoma | MOLT-4 leukemia | NCI-H226 lung | NCI-H23 lung | NCI-H460 lung | NCI-H522 lung | OVCAR-3 ovarian | OVCAR-4 ovarian | OVCAR-5 ovarian | OVCAR-8 ovarian | RPMI-8226 leukemia | RXF 393 renal | SF-268 CNS | SF-295 CNS | SF-539 CNS | SK-MEL-2 melanoma | SK-MEL-28 melanoma | SK-MEL-5 melanoma | SK-OV-3 ovarian | SN12C renal | SNB-19 CNS | SNB-75 CNS | SNB-78 CNS | SR leukemia | SW-620 colon | TK-10 renal | U251 CNS | UACC-257 melanoma | UACC-62 melanoma | UO-31 renal | XF 498 CNS

Reference: PubChem BioAssay (NCI)
